Marks after values point to notes of the source that are not given here.
Experiments:
[1] = target: GLP-1R (Homo sapiens, UniProt P43220); experiment: Hit Hunter cAMP assay in cells stably expressing GLP-1R; format: cell-based; conditions: GLP-1R-expressing cells, values in nM
Text: (§1) Stably expressing GLP-1R, GIPR or GCGR cell lines were used to determine in-vitro potency of the compounds as described herein. Signaling by the GLP-1R, GIP-R, and GCG-R involves activation of adenylate cyclase and cAMP production. Hit Hunter® cAMP assays monitor the activation of GLP-1R, GIPR or GCGR via Gi and Gs secondary messenger signaling using a technology developed by DiscoverX which is called Enzyme Fragment Complementation (EFC) with β-galactosidase (β-Gal) as the functional reporter. The enzyme is split into two complementary portions: EA for Enzyme Acceptor and ED for Enzyme Donor. ED is fused to cAMP and in the assay competes with cAMP generated by cells for binding to a cAMP-specific antibody. Active β-Gal is formed by complementation of exogenous EA to any unbound ED cAMP. Active enzyme can then convert a chemiluminescent substrate, generating an output signal detectable on a standard microplate reader. Three different assays were performed using cells expressing either of the three receptors. cAMP Hunter cell lines were expanded from freezer stocks according to standard procedures. […] Microplates were read following signal generation with a PerkinElmer EnvisionTM instrument for chemiluminescent signal detection. […] Four parametric logistic curve was generated and EC50 was determined. […]

[2] = target: T1, GIPR (Homo sapiens, UniProt P48546); experiment: Hit Hunter cAMP assay in cells stably expressing GIPR; format: cell-based; conditions: values in nM, read-out: EC50 value GIP
T1 sequence (P48546 22-466): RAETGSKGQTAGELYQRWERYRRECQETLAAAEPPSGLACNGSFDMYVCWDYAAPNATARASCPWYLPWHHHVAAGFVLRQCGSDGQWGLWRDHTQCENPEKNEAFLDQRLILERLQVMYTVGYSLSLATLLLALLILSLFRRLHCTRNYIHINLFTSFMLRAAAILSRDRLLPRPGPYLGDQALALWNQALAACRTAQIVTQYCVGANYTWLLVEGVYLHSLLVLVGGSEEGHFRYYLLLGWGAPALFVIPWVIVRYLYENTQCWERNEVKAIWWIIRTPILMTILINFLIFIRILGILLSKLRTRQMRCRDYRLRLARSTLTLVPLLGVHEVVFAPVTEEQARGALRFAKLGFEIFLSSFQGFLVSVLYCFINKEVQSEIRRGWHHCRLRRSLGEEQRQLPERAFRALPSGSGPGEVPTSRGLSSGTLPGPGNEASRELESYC
Text: as §1

[3] = target: GCGR (Homo sapiens, UniProt P47871); experiment: Hit Hunter cAMP assay in cells stably expressing GCGR; format: cell-based; conditions: values in nM, read-out: EC50 value GCG
Chain of GCGR (P47871 26-477, species assumed): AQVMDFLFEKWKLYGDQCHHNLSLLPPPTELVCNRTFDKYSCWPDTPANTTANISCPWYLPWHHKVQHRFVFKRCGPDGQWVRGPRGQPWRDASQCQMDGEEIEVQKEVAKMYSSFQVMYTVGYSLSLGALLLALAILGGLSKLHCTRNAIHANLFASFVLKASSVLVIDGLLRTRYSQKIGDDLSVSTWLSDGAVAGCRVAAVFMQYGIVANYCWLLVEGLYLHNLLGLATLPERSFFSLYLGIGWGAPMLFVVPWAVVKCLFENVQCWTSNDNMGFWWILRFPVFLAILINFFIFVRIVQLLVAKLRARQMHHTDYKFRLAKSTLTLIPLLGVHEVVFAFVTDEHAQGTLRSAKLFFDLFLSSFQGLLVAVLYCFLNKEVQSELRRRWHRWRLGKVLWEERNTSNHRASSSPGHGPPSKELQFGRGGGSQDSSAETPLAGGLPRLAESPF
Text: as §1

[4] = tested on: Type 2 diabetes mouse (db/db) model; experiment: Efficacy study in db/db mice (blood glucose, body weight, food consumption); format: in vivo; conditions: 10 nM/kg s.c. single dose, mean (n=6)
Procedure: The effect of the compounds as described herein on blood glucose, food intake and body weight were studied in mice. This study was performed in Type 2 diabetes mouse (db/db) model. The animals were divided into 9 treatment groups (n=6): a diabetic control group, Compound 12 (10 nM/kg), Compound 13 (10 nM/kg), Compound 26 (10 nM/kg), Compound 14 (10 nM/kg), Compound 15 (10 nM/kg), Compound 21 (10 nM/kg), Compound 22 (10 nM/kg), and Tirzepatide (10 nM/kg). Baseline blood glucose was measured from all the animals. All the animals were administered with test item subcutaneously. Blood glucose was measured at 4 hr, 8 hr, 12 hr, 24 hr, 48 hr, 72 hr, and 96 hr post treatment. Delta blood glucose (mM) was calculated. Body weight changes and cumulative food consumption were measured at 48 hr and 96 hr post treatment. Table 3. Effect on Blood Glucose

Chain of GLP-1R (P43220 24-463, species assumed): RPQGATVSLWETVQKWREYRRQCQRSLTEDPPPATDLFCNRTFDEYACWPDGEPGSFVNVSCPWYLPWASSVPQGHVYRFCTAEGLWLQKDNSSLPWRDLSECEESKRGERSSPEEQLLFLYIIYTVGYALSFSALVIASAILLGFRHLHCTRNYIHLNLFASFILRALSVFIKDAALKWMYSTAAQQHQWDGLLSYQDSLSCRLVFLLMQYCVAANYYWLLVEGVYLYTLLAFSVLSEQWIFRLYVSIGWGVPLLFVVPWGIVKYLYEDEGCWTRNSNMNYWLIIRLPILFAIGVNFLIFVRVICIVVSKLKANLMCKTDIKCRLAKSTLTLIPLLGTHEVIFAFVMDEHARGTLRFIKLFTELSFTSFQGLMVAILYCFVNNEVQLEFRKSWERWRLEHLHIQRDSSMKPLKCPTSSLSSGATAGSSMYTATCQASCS

CC[C@H](C)[C@H](NC(=O)[C@H](Cc1ccccc1)NC(=O)[C@H](C)NC(=O)C(C)(C)NC(=O)[C@H](CCC(N)=O)NC(=O)[C@H](C)NC(=O)[C@H](CCCCNC(=O)COCCOCCNC(=O)C(C)(C)NC(=O)CC[C@H](NC(=O)CCCCCCCCCCCCCCCCCCC(=O)O)C(=O)O)NC(=O)[C@H](CCCCN)NC(=O)[C@H](CC(=O)O)NC(=O)[C@H](CC(C)C)NC(=O)[C@](C)(CC(C)C)NC(=O)[C@@H](NC(=O)[C@H](CO)NC(=O)[C@H](Cc1ccc(O)cc1)NC(=O)[C@H](CC(=O)O)NC(=O)[C@H](CO)NC(=O)[C@@H](NC(=O)[C@H](Cc1ccccc1)NC(=O)[C@@H](NC(=O)CNC(=O)[C@H](CCC(N)=O)NC(=O)C(C)(C)NC(=O)[C@@H](N)Cc1ccc(O)cc1)[C@@H](C)O)[C@@H](C)O)[C@@H](C)CC)C(=O)N[C@@H](CCC(=O)O)C(=O)N[C@@H](Cc1ccc(O)cc1)C(=O)N[C@@H](CC(C)C)C(=O)N[C@@H](CC(C)C)C(=O)N[C@@H](CCC(=O)O)C(=O)NCC(=O)NCC(=O)N1CCC[C@H]1C(=O)N[C@@H](CO)C(=O)N[C@@H](CO)C(=O)NCC(=O)N[C@@H](C)C(=O)N1CCC[C@H]1C(=O)N1CCC[C@H]1C(=O)N1CCC[C@H]1C(=O)N[C@@H](CO)C(N)=O [Compound 13]
EC50 [1]: > 2.4 nM
EC50 [2]: > 1.5 nM
EC50 [3]: > 1.8 nM
Cumulative Food Consumption (g) 0-48 hr ([4]; 0-48 hr): 4.1*** g
Cumulative Food Consumption (g) 0-96 hr ([4]; 0-96 hr): 11.2*** g
Delta Blood Glucose (mM) ([4]; 4 hr post treatment): -7.4* mM
Delta Blood Glucose ([4]; 8 hr post treatment): -5.7 mM
Delta Blood Glucose (mM) ([4]; 12 hr post treatment): -9.4** mM
Delta Blood Glucose (mM) ([4]; 24 hr post treatment): -14.4*** mM
Delta Blood Glucose (mM) ([4]; 48 hr post treatment): -13.9*** mM
Body Weight Change (%) 48 hr ([4]; 48 hr): -10.3*** %
Delta Blood Glucose (mM) ([4]; 72 hr post treatment): -12.1*** mM
Delta Blood Glucose ([4]; 96 hr post treatment): -5.6 mM
Body Weight Change (%) 96 hr ([4]; 96 hr): -6.3*** %
